Measured values taken from ChEMBL document CHEMBL5038574, “Selaginellin Derivatives from Selaginella tamariscina and Their Upregulating Effects on Low-Density Lipoprotein Receptor Expression” (J Nat Prod, 2021).
Calls of active or inactive are those of the source. The calls are words filed in the database; no cut-off is given here.

Assays:
Format in all cases: functional, cell-based
HepG2 [1] = experiment: Up regulation of LDLR mRNA expression in human HepG2 cells at 50 uM for 24 hrs by qPCR analysis
HepG2 [2] = experiment: Up regulation of protein expression in human HepG2 cells at 10 to 50 uM for 24 hrs by western blot analysis; conditions: dose 10-50 µM
HepG2 [3] = experiment: Up regulation of APOC2 mRNA expression in human HepG2 cells at 50 uM for 24 hrs by qPCR analysis
HepG2 [4] = experiment: Up regulation of SREBP mRNA expression in human HepG2 cells at 50 uM for 24 hrs by qPCR analysis
HepG2 [5] = experiment: Up regulation of APOE mRNA expression in human HepG2 cells at 50 uM for 24 hrs by qPCR analysis

Compound	Activity (HepG2 [1])	other results
O=C1C=CC(=C(c2ccc(OCc3ccc(-c4ccc(O)cc4)c(C(=C4C=CC(=O)C=C4)c4ccc(O)cc4)c3C#Cc3ccc(O)cc3)cc2)c2c(-c3ccc(O)cc3)ccc(CO)c2C#Cc2ccc(O)cc2)C=C1	inactive	
COCc1ccc2c(c1CC(=O)c1ccc(O)cc1)C(c1ccc(OC)cc1)(c1ccc(OC)cc1)c1cc(O)ccc1-2	Active	Activity (HepG2 [2]): Active; Activity (HepG2 [3]): Active; Activity (HepG2 [4]): Active; Activity (HepG2 [5]): Active
COc1ccc(C(=C2C=CC(=O)C=C2)c2c(-c3ccc(O)cc3)ccc(COc3ccc(C(=C4C=CC(=O)C=C4)c4c(-c5ccc(O)cc5)ccc(CO)c4C#Cc4ccc(O)cc4)cc3)c2C#Cc2ccc(O)cc2)cc1	inactive	
O=C1C=CC(=C(c2ccc(O)cc2)c2c(-c3ccc(O)cc3)ccc(COc3ccc([C@@]4(c5ccc(O)cc5)c5cc(O)ccc5-c5ccc(CO)c(C#Cc6ccc(O)cc6)c54)cc3)c2C#Cc2ccc(O)cc2)C=C1	inactive	
O=C1C=CC(=C(c2ccc(O)cc2)c2c(-c3ccc(O)cc3)ccc(COCc3ccc(-c4ccc(O)cc4)c(C(=C4C=CC(=O)C=C4)c4ccc(O)cc4)c3C#Cc3ccc(O)cc3)c2C#Cc2ccc(O)cc2)C=C1	inactive	
O=C1C=CC(=C(c2ccc(O)cc2)c2c(-c3ccc(O)cc3)ccc(CO)c2C#Cc2ccc(O)cc2)C=C1	inactive	
